Results from patent US11072811B2, “Substrates for covalent tethering of proteins to functional groups or solid surfaces” (PROMEGA CORPORATION, priority 2013, dated 2021).
“Also recorded” adds a separate entry of the source.

Key:
[1] = target: T1, glucocorticoid receptor (GR) (Homo sapiens, UniProt P04150); experiment: Glucocorticoid receptor competitor assay (fluorescence polarization); type: binding; details: dexamethasone-chloroalkane conjugates; FIG. 7
T1 construct: purchased Life Technology
T1 sequence (P04150 1-777): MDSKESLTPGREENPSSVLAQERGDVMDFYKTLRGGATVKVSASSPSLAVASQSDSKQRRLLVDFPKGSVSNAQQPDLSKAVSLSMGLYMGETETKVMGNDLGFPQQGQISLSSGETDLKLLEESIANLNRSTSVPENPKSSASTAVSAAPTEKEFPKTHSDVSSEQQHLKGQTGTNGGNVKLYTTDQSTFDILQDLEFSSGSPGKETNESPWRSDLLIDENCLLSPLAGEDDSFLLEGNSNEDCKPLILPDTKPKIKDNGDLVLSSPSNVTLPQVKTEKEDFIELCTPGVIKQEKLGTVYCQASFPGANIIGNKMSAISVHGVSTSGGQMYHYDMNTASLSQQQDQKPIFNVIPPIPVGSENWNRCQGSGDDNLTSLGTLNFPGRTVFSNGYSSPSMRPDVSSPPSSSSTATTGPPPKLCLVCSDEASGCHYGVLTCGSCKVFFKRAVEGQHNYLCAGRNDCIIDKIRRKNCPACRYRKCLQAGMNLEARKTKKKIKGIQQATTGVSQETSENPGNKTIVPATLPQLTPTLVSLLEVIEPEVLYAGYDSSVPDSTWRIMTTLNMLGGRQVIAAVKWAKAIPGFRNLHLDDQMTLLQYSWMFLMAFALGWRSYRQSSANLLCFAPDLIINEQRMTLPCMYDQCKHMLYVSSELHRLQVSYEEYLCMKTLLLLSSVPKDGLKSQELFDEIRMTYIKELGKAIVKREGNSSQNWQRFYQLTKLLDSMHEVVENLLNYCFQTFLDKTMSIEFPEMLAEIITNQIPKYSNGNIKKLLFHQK
Source text: c) Binding efficiency to the target glucocorticoid receptor (GR) was done using the glucocorticoid receptor competitor assay (Life Technology) as recommended by the manufacturer.

HaloTag® protein [2] = experiment: Binding efficiency to HaloTag protein in lysate (chase with fluorescent HaloTag ligand, SDS-PAGE); details: 1 μM, 0-60 min binding; for labeling kinetics / binding efficiency to HaloTag protein in lysate: methotrexate-chloroalkane conjugates, FIG. 3A
Procedure: (§1) a) Binding efficiency to HaloTag® protein in lysate was measured by adding the methotrexate-chloroalkane conjugates to lysate from cells expressing a HaloTag® protein to a final concentration of 1 μM. Following 0-60 mins of binding, the reactions were chased with 1 μM fluorescent HaloTag® ligand. Unbound HaloTag® protein was detected through binding to the fluorescent HaloTag® ligand followed by analysis on SDS-PAGE gel and detection on a fluorescent gel scanner.
as §1, with “adding the dexamethasone-chloroalkane conjugates to” for “adding the methotrexate-chloroalkane conjugates to”, “the fluorescent HaloTag ligand followed” for “the fluorescent HaloTag® ligand followed”

[3] = target: T2, NanoLuc-DHFR fusion protein (Homo sapiens, UniProt P00374); experiment: Pull-down of NanoLuc-DHFR fusion from living cells onto HALOTAG protein beads; type: cell-based; details: HEK293 cells, 10 uM conjugate, 2 h binding, 45 min capture, release with 150 μM methotrexate; FIG. 4
T2 construct: expressed in transfected cells; host or cells: HEK293
T2 sequence (P00374 1-187): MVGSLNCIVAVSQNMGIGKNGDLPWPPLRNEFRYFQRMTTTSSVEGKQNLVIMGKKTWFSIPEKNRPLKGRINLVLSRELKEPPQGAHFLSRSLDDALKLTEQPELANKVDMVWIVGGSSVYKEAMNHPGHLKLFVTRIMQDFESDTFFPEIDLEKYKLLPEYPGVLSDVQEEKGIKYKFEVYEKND
Procedure: HEK293 cells were plated and transfected using PEI with plasmid DNA encoding a NANOLUC-DHFR fusion in wells of a 96-well plate. The DNA was diluted 1:50 with a promoterless carrier DNA plasmid (pCI) to a final concentration of 80 ng total DNA per well. Twenty-four hours post-transfection, cells were serum starved for additional 24 hours and then treated with […] 10 uM PBI-4848 or PBI-5015 while control cells were not treated with the conjugated drug. Following equilibration binding of 2 h, the media was removed, and the cells quickly washed with PBS and lysed in detergent-based lysis buffer for 10 min. Cell lysates were then transferred to wells of a 96-well plate containing 0.5 μl settled paramagnetic HALOTAG protein beads and incubated with shaking for 45 min. Following binding, the unbound fraction was removed, the HALOTAG protein paramagnetic beads washed, 150 μM unconjugated methotrexate added, and the captured NANOLUC:DHFR specifically released from the beads by competition with the unconjugated methotrexate for 60 min. The released NANOLUC:DHFR (+PBI-5015 or +PBI-4848) and control samples were detected by NANOGLO luciferase detection reagent.

HaloTag® protein [4] = experiment: Binding efficiency to HaloTag protein in cells (chase with fluorescent HaloTag ligand, SDS-PAGE); type: cell-based; details: 10 μM
Procedure: b) Binding efficiency to HaloTag® protein in cells was measured by adding the methotrexate-chloroalkane conjugates to cells expressing a HaloTag® protein to a final concentration of 10 μM. Following 0-120 mins of binding, the reactions were chased with 5 μM fluorescent HaloTag® ligand. Unbound HaloTag® protein was detected through binding to the fluorescent HaloTag® ligand followed by cell lysis, analysis on a SDS-PAGE gel and detection on a fluorescent gel scanner.
b) Binding efficiency to HaloTag® protein in cells was measured by adding the dexamethasone-chloroalkane conjugates to cells expressing a HaloTag® protein to a final concentration of 10 μM. Following 0-60 mins of binding, the reaction was chased with 5 μM fluorescent HaloTag ligand. Unbound HaloTag® protein was detected through binding to the fluorescent HaloTag® ligand followed by cell lysis, analysis on SDS-PAGE gel and detection on a fluorescent gel scanner.

NanoLuc:GR fusion = target: T3, NanoLuc:GR fusion (Homo sapiens, UniProt P04150); experiment: Pull-down of NanoLuc:GR fusion from live cells onto HaloTag protein beads; type: cell-based; details: HEK293 cells, 10 μM conjugate, 2 h binding, 45 min capture, release with 150 μM Dexamethasone; FIG. 8
T3 construct: expressed in transfected cells; host or cells: HEK293
T3 sequence (P04150 1-777): T1 sequence (P04150 1-777)
Procedure: HEK293 cells were plated and transfected using PEI with plasmid DNA encoding NanoLuc:GR fusion in wells of a 96-well plate. The DNA was diluted 1:50 with a promoterless carrier DNA plasmid (pCI neo) to a final concentration of 80 ng total DNA per well. Twenty-four hours post-transfection, cells were serum starved for additional 24 hours then incubated with a final concentration of 10 μM PBI-4980 or PBI-4025 while control cells were not treated with the conjugated drug. […] The released NanoLuc:GR (+PBI-4980 or +PBI-4025) and control samples were detected by using the NanoGlo® assay reagent (Promega Corp).

[5] = methotrexate-chloroalkane conjugates, 0-120 min binding, FIG. 3B

C[C@@H]1CC2C3CCC4=CC(=O)C=C[C@]4(C)[C@@]3(F)[C@@H](O)C[C@]2(C)[C@@]1(O)C(=O)NCCOCCOCCOCCOCCC(=O)NCCOCCOCCCCCCCl (some centres unmarked) [PBI-4025]
affinity / binding efficiency to glucocorticoid receptor [1]: highest affinity; also recorded: best binding efficiency; also recorded: higher affinity

CN(Cc1cnc2nc(N)nc(N)c2n1)c1ccc(C(=O)NC(CCC(=O)NCCOCCOCCCCCCCl)C(=O)O)cc1 (centres unmarked) [PBI-4848]
labeling kinetics / binding efficiency to HaloTag protein in lysate (HaloTag® protein [2]): fast labeling kinetics
pull-down of Nluc:DHFR fusion from living cells [3]: only PBI-5015 efficiently pulled down
cell permeability/binding efficiency to HaloTag protein in cells (HaloTag® protein [4]; [5]): best cell permeability/binding efficiency; also recorded: higher cell permeability

C[C@@H]1CC2[C@@H]3CCC4=CC(=O)C=C[C@]4(C)[C@@]3(F)[C@@H](O)C[C@]2(C)[C@@]1(O)C(=O)NCCCCCNC(=O)OCCOCCOCCOC(=O)NCCOCCOCCCCCCCl (some centres unmarked) [PBI-4980, Dexamethasone Carbamate Chloroalkane]
binding kinetics to HaloTag protein in lysate (HaloTag® protein [2]; dexamethasone-chloroalkane conjugates, FIG. 6A): faster binding kinetics
cell permeability/binding efficiency to HaloTag protein in cells (HaloTag® protein [4]; dexamethasone-chloroalkane conjugates, 0-60 min binding, FIG. 6B): best cell permeability/binding efficiency
efficiency of Nluc:GR fusion pull down from live cells (NanoLuc:GR fusion): significantly higher than via PBI-4025
affinity / binding efficiency to glucocorticoid receptor [1]: best binding efficiency

CN(Cc1cnc2nc(N)nc(N)c2n1)c1ccc(C(=O)NC(CCC(=O)NCCCCCNC(=O)OCCOCCOCCOC(=O)NCCOCCOCCCCCCCl)C(=O)O)cc1 (centres unmarked) [PBI-5015]
labeling kinetics / binding efficiency to HaloTag protein in lysate (HaloTag® protein [2]): fast labeling kinetics
pull-down of Nluc:DHFR fusion from living cells [3]: efficiently pulled down
cell permeability/binding efficiency to HaloTag protein in cells (HaloTag® protein [4]; [5]): good cell permeability and binding efficiency
